Measurements: US20250332173A1, “COMPOUNDS AND METHODS FOR MODULATING NUCLEIC ACID SPLICING” (REMIX THERAPEUTICS INC., priority 2021, published 2025)
Where two headings read alike, the source gives them in different places.

Legend:
HTT mRNA = assay: RT-qPCR splicing assay, HTT canonical junction (CJ) and alternative junction (AJ) mRNA; format: cell-based, human; details: Homo sapiens
Method in brief: (§1)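 Read-out is one-step RT-qPCR on cell lysates detecting the exon-exon junction of each isoform, normalized to a housekeeping gene (PPIA in A673, GAPDH or GUSB in K562).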

SMN2 mRNA = assay: RT-qPCR splicing assay, SMN2 canonical junction (CJ) mRNA; format: cell-based, human; details: Homo sapiens, read-out: SMN2 IC50 (decrease in CJ mRNA levels)
Method in brief: (§2)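 A673 cells (DMEM/10% FBS) or K562 cells (IMDM/10% FBS) were treated 24 h at 37° C. with 11-point 3-fold dilutions (top 10 uM, ≤0.25% DMSO). Canonical-junction mRNA was quantified in lysates by RT-qPCR, normalized to GAPDH, GUSB or PPIA.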

Target C [1] = assay: RT-qPCR splicing assay panel, Target C canonical junction (CJ) mRNA; format: cell-based, human; details: Homo sapiens, read-out: Target C IC50 (decrease in CJ mRNA levels)
Method in brief: as §2

MYB = assay: HiBiT protein abundance assay, MYB HiBiT K562 cell line; format: cell-based, human
Experimental: (§3) Compounds described herein were used to screen for effects on quantitative protein abundance using a HiBit assay system (Promega). Quantitative protein abundance was determined by measuring the protein levels of HiBit-tagged protein targets expressed in cell culture via luminescence using the Nano-Glo HiBiT Lytic Detection System, which uses a split complementation assay format to reconstitute NanoBiT enzyme to generate a luminescent signal. A protein abundance assay was developed such that endogenous protein targets could be modified with the HiBiT peptide tag and their abundance could be assessed after compound treatment. Briefly, K562 cell lines containing a HiBiT-modification were treated with various compounds described herein (e.g., compounds of Formulas (I), (II), (III), (IV), (V), (VI), (VII), (VIII), or (IX)). After treatment for 24 hours, the protein abundance of a specific target was determined by measuring luminescence.
(§4) • Promega Nano-Glo HiBiT Lytic Detection System (cat #N3030) • Corning 384-well TC-treated microplates (cat #3570) • Synthego Engineered Cells Knock-In Clones
(§5) Cells were maintained in IMDM with 10% FBS. Before the assay, cells were diluted with […] growth media (IMDM+[…] media) and were seeded in a 384-well plate at a density of 10,000 cells/well (for each cell line listed in Table 5). Each compound was prepared as a 10-point 3-fold serial dilution in DMSO with the top dose at a final concentration of 10 μM in the well. Unmodified K562 cells were added at the previously specified density with DMSO to serve as an assay baseline and positive control (PC) and DMSO only with the respective modified cell lines was added to the negative control (NC) columns. Final DMSO concentration was kept at or below 0.25%. Treated cell plates were placed in an incubator at 37° C. with […] for 24 hours. After 24 hours, 25 μL of Complete HiBit Lytic reagent was added to each well at room temperature (e.g. one plate requiring 10 mL Lytic Buffer, 100 μL LgBiT Protein, 200 μL Lytic Substrate), shaken for 5 minutes at 600 RPM, then left to sit for 10 minutes for signal to stabilize before reading on a Spark Cyto plate reader (Tecan) with a 500 ms measurement time.
(§6) To determine compound effects on protein abundance of each target in Table 5, the percent response for each respective cell line was calculated at each compound concentration as follows:
(§7) For the normalized response at each concentration, a four-parameter logistical regression was fit to the data and the response was interpolated at the […] to determine a concentration for protein abundance at […] the untreated control.

HTT = assay: HiBiT protein abundance assay, HTT HiBiT K562 cell line; format: cell-based, human
Experimental: as §3, §4, §5, §6, §7

[2] = test system: K562 (human chronic myelogenous leukemia) cells; assay: Cell Titer Glo 2.0 cell viability assay; format: cell-based; details: Homo sapiens, K562, 72 h, read-out: K562 GI50
Target C [3] = assay: HiBiT protein abundance assay, Target C (Promega Nano-Glo HiBiT Lytic Detection System, knock-in K562 cell line); format: cell-based, human; details: Homo sapiens, K562, 24 h, read-out: Effect on protein abundance, Target C (IC50 category)
Experimental: as §4, §5, §6, §7

MYB mRNA = assay: RT-qPCR splicing assay, MYB canonical junction (CJ) and alternative junction (AJ) mRNA; format: cell-based, human; details: Homo sapiens
Method in brief: as §1

[4] = decrease in HTT canonical junction (CJ) mRNA, RT-qPCR, read-out: HTT CJ IC50
[5] = increase in HTT alternative junction (AJ) mRNA, RT-qPCR, read-out: HTT AJ AC50
[6] = Table 5 panel, canonical junction qPCR, compound concentration having 50% response in CJ decrease, read-out: HTT IC50 (decrease in CJ mRNA levels)
[7] = Table 5 panel, canonical junction qPCR, compound concentration having 50% response in CJ decrease
[8] = HiBiT K562 cell line, 24 hours, top dose 10 μM; read-out: Effect on protein abundance, MYB (IC50 category)
[9] = HiBiT K562 cell line, 24 hours, top dose 10 μM; read-out: Effect on protein abundance, HTT (IC50 category)
[10] = K562 cells, 72 hours, Cell Titer Glo 2.0
[11] = HiBiT K562 cell line, 24 hours, top dose 10 μM

IC50 (MYB; [8]) [nM]	IC50 (HTT; [9]) [nM]	GI50 [2, 10] [nM]	IC50 (Target C [3]; [11]) [nM]	SMILES	further results
1000 to 10000	> 10000	1000 to 10000	> 10000	Cc1cc(-c2ccc3c(=O)n(C4CCNCC4)c(C)nc3c2)cc2cn(C)nc12 [Compound 313]	IC50 (HTT mRNA; [4]): > 10000 nM; AC50 (HTT mRNA; [5]): > 10000 nM; IC50 (HTT mRNA; [6]): > 10000 nM; IC50 (SMN2 mRNA; [7]): 100 to 1000 nM; IC50 (Target C [1]; [7]): > 10000 nM
> 10000	> 10000	> 10000	> 10000	O=c1c2c(F)cc(-c3cn[nH]c3)cc2ncn1C1CCNCC1 [Compound 321]	IC50 (HTT mRNA; [4]): > 10000 nM; AC50 (HTT mRNA; [5]): > 10000 nM; IC50 (MYB mRNA; decrease in MYB canonical junction (CJ) mRNA, RT-qPCR, read-out: MYB CJ IC50): 1000 to 10000 nM; AC50 (MYB mRNA; increase in MYB alternative junction (AJ) mRNA, RT-qPCR, read-out: MYB AJ AC50): 1000 to 10000 nM
1000 to 10000	1000 to 10000	1000 to 10000	> 10000	Cc1cn2cc(-c3ccc4c(=O)n([C@H]5CCNC5)cc(C)c4c3)cc(F)c2n1 [Compound 451, (S)-6-(8-fluoro-2-methylimidazo[1,2-a]pyridin-6-yl)-4-methyl-2-(pyrrolidin-3-yl)isoquinolin-1(2H)-one]	IC50 (HTT mRNA; [6]): > 10000 nM; IC50 (MYB mRNA; Table 5 panel, canonical junction qPCR, compound concentration having 50% response in CJ decrease, read-out: MYB IC50 (decrease in CJ mRNA levels)): 1000 to 10000 nM; IC50 (SMN2 mRNA; [7]): 100 to 1000 nM; IC50 (Target C [1]; [7]): > 10000 nM
–	–	–	–	Cc1cn2nc(-c3ccc4c(=O)n(C5CCNCC5)ccc4c3)cc(CC(=O)N(C)C)c2n1 [Compound 532, N,N-dimethyl-2-[2-methyl-6-[1-oxo-2-(4-piperidyl)-6-isoquinolyl]imidazo[1,2-b]pyridazin-8-yl]acetamide]	AC50 (HTT mRNA; read-out: HTT AJ AC50 (nM)): 100 to 1000 nM; IC50 (HTT mRNA; read-out: HTT CJ IC50 (nM)): 100 to 1000 nM; IC50 (HTT mRNA; read-out: HTT IC50 (decrease in CJ mRNA levels)): 100 to 1000 nM; AC50 (MYB mRNA; read-out: MYB AJ AC50 (nM)): 100 to 1000 nM; IC50 (MYB mRNA; read-out: MYB CJ IC50 (nM)): 100 to 1000 nM; IC50 (MYB mRNA; read-out: MYB IC50 (decrease in CJ mRNA levels)): 100 to 1000 nM; IC50 (SMN2 mRNA): < 100 nM; IC50 (Target C [1]): 1000 to 10000 nM; IC50 (MYB; read-out: Effect on protein abundance, MYB (IC50 category); HiBiT K562 cell line, 24 hours, top dose 10 μM): 100 to 1000 nM; IC50 (HTT; read-out: Effect on protein abundance, HTT (IC50 category); HiBiT K562 cell line, 24 hours, top dose 10 μM): 100 to 1000 nM; GI50 [2]: 100 to 1000 nM; IC50 (Target C [3]): 100 to 1000 nM
< 100	< 100	< 100	< 100	Cn1cc2cc(-c3ccc4c(=O)n(C5CCNCC5)ccc4n3)c(O)c(F)c2n1 [Compound 1226]	–
< 100	< 100	< 100	100 to 1000	Cc1cn2cc(-c3ccc4c(=O)n(C5CCNCC5)ccc4n3)cc(F)c2n1 [Compound 1230, 2-(8-fluoro-2-methylimidazo[1,2-a]pyridin-6-yl)-6-(piperidin-4-yl)-1,6-naphthyridin-5(6H)-one]	–
< 100	< 100	< 100	< 100	Cc1c(O)c(-c2ccc3c(=O)n(C4CCNCC4)ccc3n2)cc2cn(C)nc12 [Compound 1234]	–
< 100	< 100	< 100	< 100	Cc1nc2cc(O)c(-c3ccc4c(=O)n(C5CCNCC5)ccc4n3)cc2o1 [Compound 1237]	–
< 100	< 100	< 100	< 100	Cn1cc2cc(-c3ccc4c(=O)n(C5CCNCC5)ccc4n3)c(O)cc2n1 [Compound 1239, 2-(6-hydroxy-2-methyl-2H-indazol-5-yl)-6-(piperidin-4-yl)-1,6-naphthyridin-5(6H)-one]	–
< 100	< 100	100 to 1000	< 100	Cn1cc2cc(-c3ccc4c(=O)n([C@H]5CCNC6(CC6)C5)ccc4n3)c(O)cc2n1 [Compound 1245]	–
< 100	100 to 1000	< 100	100 to 1000	Cc1c(O)c(-c2ncc3c(=O)n(C4CCNC(C)C4)ccc3n2)cc2cn(C)nc12 (stereo not drawn) [Compound 1320]	–
100 to 1000	100 to 1000	100 to 1000	1000 to 10000	Cc1c(O)c(-c2ncc3c(=O)n(C4CCC(N)C4)ccc3n2)cc2cn(C)nc12 (stereo not drawn) [Compound 1321]	–
1000 to 10000	> 10000	1000 to 10000	1000 to 10000	Cc1c(O)c(-c2ncc3c(=O)n(C45CC(N)(C4)C5)ccc3n2)cc2cn(C)nc12 [Compound 1322]	–
< 100	1000 to 10000	< 100	> 10000	Cc1c(O)c(-c2ncc3c(=O)n(C45CCC(N)(CC4)CC5)ccc3n2)cc2cn(C)nc12 [Compound 1323]	–
100 to 1000	1000 to 10000	100 to 1000	1000 to 10000	Cc1c(O)c(-c2ncc3c(=O)n(C45CCC(N)(C4)C5)ccc3n2)cc2cn(C)nc12 [Compound 1324]	–
100 to 1000	100 to 1000	100 to 1000	1000 to 10000	Cc1c(O)c(-c2ncc3c(=O)n(C4CC5CC4CN5)ccc3n2)cc2cn(C)nc12 (stereo not drawn) [Compound 1325]	–
< 100	100 to 1000	100 to 1000	100 to 1000	Cc1c(O)c(-c2ncc3c(=O)n([C@H]4[C@@H]5CNC[C@@H]54)ccc3n2)cc2cn(C)nc12 [Compound 1326]	–
100 to 1000	> 10000	100 to 1000	> 10000	Cc1cn2cc(-c3ncc4c(=O)n(C5CCNCC5)c(C)cc4n3)cc(F)c2n1 [Compound 1327]	–
100 to 1000	100 to 1000	100 to 1000	1000 to 10000	Cc1c(O)c(-c2ncc3c(=O)n([C@@H]4CC[C@H](N)C4)ccc3n2)cc2cn(C)nc12 [Compound 1333]	–
100 to 1000	100 to 1000	100 to 1000	1000 to 10000	Cc1c(O)c(-c2ncc3c(=O)n([C@H]4CC[C@H](N)C4)ccc3n2)cc2cn(C)nc12 [Compound 1334]	–

SMILES	IC50 (MYB; [8]) [nM]	IC50 (HTT; [9]) [nM]	GI50 [2, 10] [nM]	IC50 (Target C [3]; [11]) [nM]	further results
Cc1c(O)c(-c2ncc3c(=O)n([C@H]4C[C@H]5CC[C@@H](C4)N5)ccc3n2)cc2cn(C)nc12 [Compound 1329]	< 100	100 to 1000	100 to 1000	100 to 1000	–
